Assay results: ChEMBL document CHEMBL3885861, “Open TG-GATES”

Species on record: Rattus norvegicus
Assay: Open TG-GATES - Regimen: Daily Repeat
Format: toxicity, organism-based, Sprague-Dawley
Parameters: regimen Daily Repeat, gender Male, age 6 weeks
Conditions: in vivo, po, route gavage; for APTT / Bas / Eos / Fbg / Hb / Ht / Lym / MCH / MCHC / MCV / Mono / Neu / PT / Plat / RBC / Ret / WBC: tissue Blood; for A/G / ALP / ALT / AST / BUN / CRE / Ca / Cl / DBIL / GLC / IP / K / LDH / Na / PL / RALB / TBIL / TC / TG / TP / gamma-GTP: tissue Plasma
[1] = 30 mg/kg, 72 h, dose level Middle, time 3 day
[2] = 30 mg/kg, […], dose level Middle, time 7 day
[3] = 30 mg/kg, […], dose level Middle, time 14 day
[4] = 30 mg/kg, […], dose level Middle, time 28 day
[5] = 100 mg/kg, 72 h, dose level High, time 3 day
[6] = 100 mg/kg, […], dose level High, time 7 day
[7] = 100 mg/kg, […], dose level High, time 14 day
[8] = 100 mg/kg, […], dose level High, time 28 day

## Cn1cc[nH]c1=S [METHIMAZOLE]
[1]
  TERMINAL_BW: 217 g
  APTT: 20.8 s
  Bas: 0%
  Eos: 1%
  Fbg: 340.6 mg/dL
  Hb: 14 g/dL
  Ht: 39.7%
  Lym: 84%
  MCH: 21.6 pg
  MCHC: 35.2%
  MCV: 61.2 fL
  Mono: 2%
  Neu: 12.8%
  PT: 16.5 s
  Plat: 131.6 x10_4/uL
  RBC: 648.8 x10_4/ul
  Ret: 5.4%
  WBC: 83.8 x10_2/uL
  A/G: 1.2
  ALP: 1643.6 IU/L
  ALT: 41.2 IU/L
  AST: 61 IU/L
  BUN: 14.6 mg/dL
  CRE: 0.1 mg/dL
  Ca: 11 mg/dL
  Cl: 107 meq/L
  DBIL: 0.002 mg/dL
  GLC: 178.4 mg/dL
  IP: 6.6 mg/dL
  K: 4.4 meq/L
  LDH: 260.2 IU/L
  Na: 142.4 meq/L
  PL: 173 mg/dL
  RALB: 3.3 g/dL
  TBIL: 0.012 mg/dL
  TC: 94 mg/dL
  TG: 132.8 mg/dL
  TP: 5.9 g/dL
  gamma-GTP: 1.2 IU/L
[2]
  TERMINAL_BW: 231.6 g
  APTT: 20.9 s
  Bas: 0%
  Eos: 1%
  Fbg: 335.6 mg/dL
  Hb: 15.1 g/dL
  Ht: 41.3%
  Lym: 83.6%
  MCH: 22.3 pg
  MCHC: 36.7%
  MCV: 60.7 fL
  Mono: 2%
  Neu: 12.8%
  PT: 16.9 s
  Plat: 122.3 x10_4/uL
  RBC: 680 x10_4/ul
  Ret: 3.7%
  WBC: 90.9 x10_2/uL
  A/G: 1.1
  ALP: 1563.2 IU/L
  ALT: 34.4 IU/L
  AST: 57 IU/L
  BUN: 17.2 mg/dL
  CRE: 0.2 mg/dL
  Ca: 10.7 mg/dL
  Cl: 108 meq/L
  DBIL: 0.002 mg/dL
  GLC: 166.8 mg/dL
  IP: 6.7 mg/dL
  K: 4.2 meq/L
  LDH: 248.8 IU/L
  Na: 141.8 meq/L
  PL: 169.4 mg/dL
  RALB: 3.2 g/dL
  TBIL: 0.002 mg/dL
  TC: 97 mg/dL
  TG: 105 mg/dL
  TP: 6.3 g/dL
  gamma-GTP: 1 IU/L
[3]
  TERMINAL_BW: 256 g
  APTT: 21.6 s
  Bas: 0%
  Eos: 0.2%
  Fbg: 295 mg/dL
  Hb: 14.6 g/dL
  Ht: 41.6%
  Lym: 89%
  MCH: 20.2 pg
  MCHC: 35%
  MCV: 57.6 fL
  Mono: 1%
  Neu: 8.4%
  PT: 17.5 s
  Plat: 109.2 x10_4/uL
  RBC: 721.2 x10_4/ul
  Ret: 1.6%
  WBC: 89.2 x10_2/uL
  A/G: 1.1
  ALP: 1519.4 IU/L
  ALT: 31.2 IU/L
  AST: 48 IU/L
  BUN: 22.2 mg/dL
  CRE: 0.2 mg/dL
  Ca: 10.8 mg/dL
  Cl: 106.4 meq/L
  DBIL: 0.002 mg/dL
  GLC: 175.6 mg/dL
  IP: 6.2 mg/dL
  K: 3.8 meq/L
  LDH: 190.4 IU/L
  Na: 142.6 meq/L
  PL: 169 mg/dL
  RALB: 3.4 g/dL
  TBIL: 0.018 mg/dL
  TC: 105 mg/dL
  TG: 79.6 mg/dL
  TP: 6.7 g/dL
  gamma-GTP: 1 IU/L
[4]
  TERMINAL_BW: 282.7 g
  APTT: 21.4 s
  Bas: 0%
  Eos: 0.8%
  Fbg: 290.6 mg/dL
  Hb: 15.4 g/dL
  Ht: 42.4%
  Lym: 84.4%
  MCH: 19.3 pg
  MCHC: 36.2%
  MCV: 53.3 fL
  Mono: 2%
  Neu: 12.2%
  PT: 17.4 s
  Plat: 90.1 x10_4/uL
  RBC: 796 x10_4/ul
  Ret: 1%
  WBC: 91.7 x10_2/uL
  A/G: 1
  ALP: 839.6 IU/L
  ALT: 34 IU/L
  AST: 44 IU/L
  BUN: 21.2 mg/dL
  CRE: 0.3 mg/dL
  Ca: 10.4 mg/dL
  Cl: 106.2 meq/L
  DBIL: 0.006 mg/dL
  GLC: 169.8 mg/dL
  IP: 5.3 mg/dL
  K: 3.9 meq/L
  LDH: 154.8 IU/L
  Na: 142.2 meq/L
  PL: 159.6 mg/dL
  RALB: 3.5 g/dL
  TBIL: 0.014 mg/dL
  TC: 103.2 mg/dL
  TG: 53.8 mg/dL
  TP: 6.9 g/dL
  gamma-GTP: 2 IU/L
[5]
  TERMINAL_BW: 196.1 g
  APTT: 20.2 s
  Bas: 0%
  Eos: 1%
  Fbg: 316.5 mg/dL
  Hb: 14.8 g/dL
  Ht: 41.3%
  Lym: 81.4%
  MCH: 21.8 pg
  MCHC: 35.9%
  MCV: 60.6 fL
  Mono: 2.2%
  Neu: 14.6%
  PT: 15.9 s
  Plat: 118.8 x10_4/uL
  RBC: 682.8 x10_4/ul
  Ret: 3.7%
  WBC: 59.4 x10_2/uL
  A/G: 1.2
  ALP: 1390.6 IU/L
  ALT: 34.8 IU/L
  AST: 42.2 IU/L
  BUN: 16.6 mg/dL
  CRE: 0.1 mg/dL
  Ca: 10.8 mg/dL
  Cl: 108.2 meq/L
  DBIL: 0.004 mg/dL
  GLC: 162 mg/dL
  IP: 7.1 mg/dL
  K: 3.9 meq/L
  LDH: 258.6 IU/L
  Na: 141.8 meq/L
  PL: 180.8 mg/dL
  RALB: 3.2 g/dL
  TBIL: 0.028 mg/dL
  TC: 103 mg/dL
  TG: 62.2 mg/dL
  TP: 5.9 g/dL
  gamma-GTP: 1 IU/L
[6]
  TERMINAL_BW: 231.6 g
  APTT: 20.6 s
  Bas: 0%
  Eos: 1%
  Fbg: 347.6 mg/dL
  Hb: 14.7 g/dL
  Ht: 40.3%
  Lym: 86.8%
  MCH: 21.7 pg
  MCHC: 36.4%
  MCV: 59.6 fL
  Mono: 2.2%
  Neu: 8.4%
  PT: 17.9 s
  Plat: 132.4 x10_4/uL
  RBC: 677 x10_4/ul
  Ret: 2.3%
  WBC: 73.6 x10_2/uL
  A/G: 1.1
  ALP: 1556.6 IU/L
  ALT: 30.2 IU/L
  AST: 32.4 IU/L
  BUN: 18 mg/dL
  CRE: 0.2 mg/dL
  Ca: 11.1 mg/dL
  Cl: 107.2 meq/L
  DBIL: 0.004 mg/dL
  GLC: 161.4 mg/dL
  IP: 7 mg/dL
  K: 4.1 meq/L
  LDH: 221.8 IU/L
  Na: 141.4 meq/L
  PL: 203.2 mg/dL
  RALB: 3.5 g/dL
  TBIL: 0.01 mg/dL
  TC: 120 mg/dL
  TG: 89.4 mg/dL
  TP: 6.7 g/dL
  gamma-GTP: 1.8 IU/L
[7]
  TERMINAL_BW: 234.9 g
  APTT: 20.8 s
  Bas: 0%
  Eos: 0.4%
  Fbg: 430.8 mg/dL
  Hb: 14.5 g/dL
  Ht: 40.9%
  Lym: 80.4%
  MCH: 20.4 pg
  MCHC: 35.4%
  MCV: 57.7 fL
  Mono: 2.6%
  Neu: 15%
  PT: 18.1 s
  Plat: 100.4 x10_4/uL
  RBC: 708.8 x10_4/ul
  Ret: 1.4%
  WBC: 65 x10_2/uL
  A/G: 1
  ALP: 984.4 IU/L
  ALT: 30.8 IU/L
  AST: 26.6 IU/L
  BUN: 21.6 mg/dL
  CRE: 0.3 mg/dL
  Ca: 11.1 mg/dL
  Cl: 106.4 meq/L
  DBIL: 0.006 mg/dL
  GLC: 164.8 mg/dL
  IP: 6.3 mg/dL
  K: 4 meq/L
  LDH: 182.6 IU/L
  Na: 142.6 meq/L
  PL: 201.4 mg/dL
  RALB: 3.6 g/dL
  TBIL: 0.034 mg/dL
  TC: 140.2 mg/dL
  TG: 44.4 mg/dL
  TP: 7.2 g/dL
  gamma-GTP: 2 IU/L
[8]
  TERMINAL_BW: 244.7 g
  APTT: 19.9 s
  Bas: 0%
  Eos: 0.2%
  Fbg: 298.4 mg/dL
  Hb: 14.9 g/dL
  Ht: 40.7%
  Lym: 87.4%
  MCH: 19.6 pg
  MCHC: 36.7%
  MCV: 53.4 fL
  Mono: 1.8%
  Neu: 9.4%
  PT: 18.1 s
  Plat: 77.6 x10_4/uL
  RBC: 761.4 x10_4/ul
  Ret: 0.7%
  WBC: 79.7 x10_2/uL
  A/G: 1.1
  ALP: 910 IU/L
  ALT: 33.4 IU/L
  AST: 25.8 IU/L
  BUN: 24.8 mg/dL
  CRE: 0.3 mg/dL
  Ca: 10.8 mg/dL
  Cl: 105.6 meq/L
  DBIL: 0.028 mg/dL
  GLC: 166.6 mg/dL
  IP: 5.6 mg/dL
  K: 3.5 meq/L
  LDH: 151.2 IU/L
  Na: 143.8 meq/L
  PL: 167.6 mg/dL
  RALB: 3.7 g/dL
  TBIL: 0.048 mg/dL
  TC: 110 mg/dL
  TG: 42 mg/dL
  TP: 7.2 g/dL
  gamma-GTP: 2.6 IU/L
